Earlier results on three compounds are cited in patent US20040265231A1, “Use of antioxidants to mitigate radioimmunotherapy-induced radiation toxicity” (priority 1999, published 2004).

For data set [1] the following is noted: for radioprotective effect (frequency of micronuclei and chromosomal aberration post-radiation): murine study, gamma-ray.

Turning to `O=C1O[C@H]([C@@H](O)CO)C(O)=C1O` [vitamin C, L-ascorbic acid], the “radioprotective effect (frequency of micronuclei and chromosomal aberration post-radiation)” value in data set [1] is reported as “exhibited radioprotective effects”. Further, the “radioprotective effect against internalized 131I and 125I” value (dietary and injected) is on record as “exhibited radioprotective effects”. For the same compound, where the note is “in vivo”, the “radioprotective effect against 210Po (alpha emission)” value was “not against alpha emission from ^210Po”.

On to vitamin A, for which, where the note is “in vivo”, the “radioprotection against tissue incorporated I5I” value is “effective radioprotector” and the “radioprotective effect against 210Po (alpha emission)” value was “not against ^210Po”.

As to vitamin E, in data set [1], the “radioprotective effect (frequency of micronuclei and chromosomal aberration post-radiation)” value is reported as “exhibited radioprotective effects”. The “radioprotective effect of vitamin alone” value in data set [1] (rats and mice) is “ineffective”.
